Assay results reported in patent US20230391785A1, “NITROGEN-CONTAINING HETEROCYCLIC COMPOUND, METHOD FOR PREPARING SAME AND USE OF SAME” (280 Bio, Inc., priority 2021, published 2023).
Where two headings read alike, the source gives them in different places.

Tests used:
Assay type in all cases: cell-based
[1] = system: NCI-H358 cells (KRAS G12C mutation); assay: Proliferation inhibition measured by CTG (CellTiter Glo), NCI-H358; conditions: Homo sapiens, 120 hours incubation
From the text: (§1) NCI-H358 is a human non-small cell lung cancer cell line with KRAS G12C mutation; PANC-1 and AsPC-1 are pancreatic cancer cell lines with KRAS G12D mutation; AGS is a gastric cancer cell line with KRAS G12D mutation; A427 is a lung cancer cell line with KRAS G12D mutation; THP-1 is a leukemia cell line with NRAS G12D mutation; Hs 578T is a breast cancer cell line with HRAS G12D mutation; SW480 is a colon cancer cell lines with KRAS G12V mutation; A375 is a wild type malignant melanoma cell line. The proliferation inhibitory effect of the compounds on various mutations was evaluated by determining the proliferation inhibitory activity of the compounds on these cell lines.
(§2) The assay was conducted on either 384-well plates or 96-well plates. The procedures are as follows:
(§3) The cell suspensions were added to 384- or 96-well plates (384-well plate: 40 μL; 96-well plate: […]) except for peripheral wells. The plates were incubated in a carbon dioxide incubator overnight. Prepared compounds (10 concentration gradients by serial 3-fold dilution) were added to the wells. The cell plates were incubated in a carbon dioxide incubator for 120 hours. CellTiter Glo reagent (384 well plate: 25 μL; 96 well plate: 100 μL) was added to the 384- or 96-well plates. The plates were shaken for 10 minutes away from light, and incubated for 10 minutes. The plates were read by EnVision system. Inhibition curves were plotted using XLFit and IC50 values were calculated. “IC50>10 μM” is denoted by “*”, “10 μM≥IC50>1 μM” is denoted by “**”, “1 μM≥IC50>100 nM” is denoted by “***”, and “IC50≤100 nM” is denoted by “****”.

[2] = system: AGS gastric cancer cell line (KRAS G12D mutation); assay: Proliferation inhibition measured by CTG (CellTiter Glo), AGS; conditions: CTG, 120 hours incubation
From the text: as §1, §2, §3

[3] = system: A375 wild type malignant melanoma cell line; assay: Proliferation inhibition measured by CTG (CellTiter Glo), A375; conditions: Homo sapiens, A-375, CTG, 120 hours incubation
From the text: as §1, §2, §3

[4] = system: SW480 colon cancer cell line (KRAS G12V mutation); assay: Proliferation inhibition measured by CTG (CellTiter Glo), SW480; conditions: Homo sapiens
From the text: as §1, §2, §3

[5] = Table 2, CTG, read-out: IC50 H358 (G12C)
[6] = Table 2, read-out: IC50 AGS (G12D)
[7] = Table 2, read-out: IC50 A375 (wide type)
[8] = Table 1, CTG, class symbol, read-out: IC50 (H358)
[9] = Table 1, class symbol, read-out: IC50 (AGS)
[10] = Table 1, class symbol, read-out: IC50 (A375)
[11] = Table 3, CTG, class symbol, read-out: IC50 (H358)
[12] = Table 3, class symbol, read-out: IC50 (AGS)
[13] = Table 3, class symbol, read-out: IC50 (A375)
[14] = Table 3, 120 hours incubation, class symbol, read-out: IC50 (SW480)

IC50 [1, 5] [nM]	IC50 [2, 6] [nM]	IC50 [3, 7] [nM]	IC50 [1, 8] [nM]	IC50 [2, 9] [nM]	IC50 [3, 10] [nM]	IC50 [1, 11] [nM]	IC50 [2, 12] [nM]	IC50 [3, 13] [nM]	IC50 ([4]; Table 2, 120 hours incubation, read-out: IC50 SW480 (G12V)) [nM]	IC50 [4, 14] [nM]	SMILES
1230	1480	1610									C=Cc1ncc2n1CCN(c1nc(OC[C@@H]3CCCN3C)nc3c1CCN(c1cccc4cccc(Cl)c14)C3)C2 [Comparative compound 2′, reference compound]
1040	1180	1500									C=Cc1ncc2n1CCN(c1nc(OC[C@@H]3CCCN3C)nc3c1CCN(c1cccc4ccccc14)C3)C2 [Comparative compound 3′, reference compound]
			100 to 1000	100 to 1000	100 to 1000						CN1CCC[C@H]1COc1nc2c(c(N3CCn4cnc(C5CC5)c4C3)n1)CCN(c1cccc3cccc(Cl)c13)C2 [Compound 40]
			100 to 1000	≤ 100	100 to 1000						Cc1ncn2c1CN(c1nc(OC[C@@H]3CCCN3C)nc3c1CCN(c1cccc4cccc(Cl)c14)C3)CC2 [Compound 41]
						100 to 1000	100 to 1000				CN1CCC[C@H]1COc1nc2c(c(N3CCn4cncc4C3)n1)CCN(c1cc(O)cc3ccccc13)C2 [Compound 43]
33	24	36				≤ 100	≤ 100	≤ 100	25	≤ 100	C[C@@H]1Cn2cncc2CN1c1nc(OC[C@@H]2CCCN2C)nc2c1CCN(c1cccc3cccc(Cl)c13)C2 [Compound 44]
						100 to 1000	100 to 1000	1000 to 10000		1000 to 10000	CN1CCC[C@H]1COc1nc2c(c(N3CCn4c(cnc4Br)C3)n1)CCN(c1cccc3cccc(Cl)c13)C2 [Compound 49]
						1000 to 10000	1000 to 10000	1000 to 10000		1000 to 10000	CN1CCC[C@H]1COc1nc2c(c(N3CCn4c(cnc4-c4ccccc4)C3)n1)CCN(c1cccc3cccc(Cl)c13)C2 [Compound 50]
						100 to 1000	100 to 1000	1000 to 10000		1000 to 10000	CN1CCC[C@H]1COc1nc2c(c(N3CCn4cnc(C(N)=O)c4C3)n1)CCN(c1cccc3cccc(Cl)c13)C2 [Compound 52]
						1000 to 10000	1000 to 10000	1000 to 10000		1000 to 10000	CN1CCC[C@H]1COc1nc2c(c(N3CCn4c(cnc4C4CC4)C3)n1)CCN(c1cccc3cccc(Cl)c13)C2 [Compound 53]
						≤ 100	≤ 100	100 to 1000		≤ 100	C[C@@H]1Cn2cncc2CN1c1nc(O[C@@H]2CCN(C)C2)nc2c1CCN(c1cccc3cccc(Cl)c13)C2 [Compound 57]
						≤ 100	≤ 100	100 to 1000		≤ 100	C[C@@H]1Cn2cncc2CN1c1nc(OC[C@H]2CCCN2C)nc2c1CCN(c1cccc3cccc(Cl)c13)C2 [Compound 58]
						100 to 1000	100 to 1000	1000 to 10000		100 to 1000	C[C@@H]1Cn2cncc2CN1c1nc(O[C@@H]2CCCN(C)C2)nc2c1CCN(c1cccc3cccc(Cl)c13)C2 [Compound 60]
						≤ 100	≤ 100	100 to 1000		≤ 100	CCN1CCC[C@H]1COc1nc2c(c(N3Cc4cncn4C[C@H]3C)n1)CCN(c1cccc3cccc(Cl)c13)C2 [Compound 63]
						≤ 100	≤ 100	≤ 100		≤ 100	C[C@@H]1Cn2cncc2CN1c1nc(OC[C@@H]2CCCCN2C)nc2c1CCN(c1cccc3cccc(Cl)c13)C2 [Compound 64]
						≤ 100	≤ 100	100 to 1000		100 to 1000	C[C@@H]1Cn2cncc2CN1c1nc(OC[C@@H]2CCCN2C)nc2c1CCN(c1cc(O)cc3ccccc13)C2 [Compound 66]

IC50 [1, 5] [nM]	IC50 [2, 6] [nM]	IC50 [3, 7] [nM]	IC50 [1, 8] [nM]	IC50 [2, 9] [nM]	IC50 [3, 10] [nM]	IC50 [1, 11] [nM]	IC50 [2, 12] [nM]	IC50 [3, 13] [nM]	IC50 ([4]; Table 2, 120 hours incubation, read-out: IC50 SW480 (G12V)) [nM]	IC50 [4, 14] [nM]	SMILES
						≤ 100	≤ 100	100 to 1000		≤ 100	C[C@@H]1Cn2cncc2CN1c1nc(OC[C@@H]2CCCN2C)nc2c1CCN(c1cccc3ccccc13)C2 [Compound 68]
						100 to 1000	100 to 1000	1000 to 10000		100 to 1000	C[C@@H]1Cn2cncc2CN1c1nc(O[C@H]2CCN(C)C2)nc2c1CCN(c1cccc3cccc(Cl)c13)C2 [Compound 71]
						100 to 1000	100 to 1000	1000 to 10000		100 to 1000	C[C@@H]1Cn2cncc2CN1c1nc(OC2CN(C)C2)nc2c1CCN(c1cccc3cccc(Cl)c13)C2 [Compound 74]
						≤ 100	≤ 100	≤ 100		≤ 100	[2H]C([2H])([2H])N1CCC[C@H]1COc1nc2c(c(N3Cc4cncn4C[C@H]3C)n1)CCN(c1cccc3cccc(Cl)c13)C2 [Compound 77]
						≤ 100	≤ 100	≤ 100		≤ 100	C[C@@H]1Cn2cnc(F)c2CN1c1nc(OC[C@@H]2CCCN2C)nc2c1CCN(c1cc(O)cc3cccc(Cl)c13)C2 [Compound 78]
							≤ 100	≤ 100		≤ 100	C[C@@H]1Cn2cncc2CN1c1nc(OC[C@@H]2CCCN2C)nc2c1CCN(c1cc(OC(=O)C(C)(C)C)cc3cccc(Cl)c13)C2 [Compound 79]
						≤ 100	≤ 100	100 to 1000		≤ 100	C[C@@H]1Cn2cncc2CN1c1nc(OC[C@@H]2CCCN2C)nc2c1CCN(c1cccc3cccnc13)C2 [Compound 83]
						1000 to 10000	100 to 1000	1000 to 10000		100 to 1000	C[C@@H]1Cn2cncc2CN1c1nc(OC[C@@H]2CCCN2C)nc2c1CCN(c1cccc3c1CCCC3)C2 [Compound 84]
						100 to 1000	100 to 1000	1000 to 10000		100 to 1000	COc1cc(N2CCc3c(nc(OC[C@@H]4CCCN4C)nc3N3Cc4cncn4C[C@H]3C)C2)c2c(Cl)cccc2c1 [Compound 85]
						≤ 100	≤ 100	≤ 100		≤ 100	C[C@@H]1Cn2cnc(Cl)c2CN1c1nc(OCC2CCCN2C)nc2c1CCN(c1cccc3cccc(Cl)c13)C2 (stereo partly drawn) [Compound 86]
						≤ 100	≤ 100	100 to 1000		≤ 100	C[C@@H]1Cn2cnc(F)c2CN1c1nc(OC[C@@H]2CCCN2C)nc2cc(-c3cccc4cccc(Cl)c34)ccc12 [Compound 88]
						≤ 100	≤ 100	≤ 100		≤ 100	C[C@@H]1Cn2cnc(F)c2CN1c1nc(OC[C@@H]2CCCN2C)nc2cc(-c3cc(O)cc4cccc(Cl)c34)ccc12 [Compound 91]
						≤ 100	≤ 100	≤ 100		≤ 100	C[C@@H]1Cn2cnc(F)c2CN1c1nc(OC[C@@H]2CCCN2C)nc2cc(-c3cc(OC(=O)C(C)(C)C)cc4cccc(Cl)c34)ccc12 [Compound 92]
							≤ 100			≤ 100	C[C@@H]1Cn2cnc(F)c2CN1c1nc(OC[C@@H]2CCCN2C)nc2c1CCN(c1cc(OC(=O)C(C)(C)C)cc3cccc(Cl)c13)C2 [Compound 96]
						≤ 100	≤ 100	≤ 100		≤ 100	C[C@@H]1Cn2cnc(F)c2CN1c1nc(OC[C@@H]2CCCCN2C)nc2c1CCN(c1cccc3cccc(Cl)c13)C2 [Compound 99]
						≤ 100	≤ 100	≤ 100		≤ 100	CC(C)[C@@H](N)C(=O)Oc1cc(N2CCc3c(nc(OC[C@@H]4CCCN4C)nc3N3Cc4c(F)ncn4C[C@H]3C)C2)c2c(Cl)cccc2c1 [Compound 101]

SMILES	IC50 [1, 5] [nM]	IC50 [2, 6] [nM]	IC50 [3, 7] [nM]	IC50 [1, 8] [nM]	IC50 [2, 9] [nM]	IC50 [3, 10] [nM]	IC50 [1, 11] [nM]	IC50 [2, 12] [nM]	IC50 [3, 13] [nM]	IC50 ([4]; Table 2, 120 hours incubation, read-out: IC50 SW480 (G12V)) [nM]	IC50 [4, 14] [nM]
C[C@@H]1Cn2cncc2CN1c1nc(OC[C@@H]2CCCN2C)nc2c1CCN(c1cc(OC(=O)N(C)C)cc3cccc(Cl)c13)C2 [Compound 82]							100 to 1000	≤ 100	100 to 1000		100 to 1000
C[C@@H]1Cn2cnc(F)c2CN1c1nc(OC[C@@H]2CCCN2C)nc2c1CCN(c1cc(OC(=O)N(C)C)cc3cccc(Cl)c13)C2 [Compound 97]							≤ 100	≤ 100	100 to 1000		≤ 100
CNC(=O)Oc1cc(N2CCc3c(nc(OC[C@@H]4CCCN4C)nc3N3Cc4c(F)ncn4C[C@H]3C)C2)c2c(Cl)cccc2c1 [Compound 98]							≤ 100	≤ 100	≤ 100		≤ 100
